Data as given in PubChem BioAssay (NCI).
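A five-concentration, 48-hour dose response in 96-well plates underlies each endpoint, interpolated linearly between surrounding concentrations. GI50 is the concentration that inhibits growth by half. Definition used: TGI = concentration required for complete inhibition of growth.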

Tests used:
Test in all cases: NCI-60 cell line screen, 48 h; in the data active = GI50 below about 0.43 µM; inactive = the rest
A498 renal = tested on: A498 renal
A549 NSCLC = tested on: A549 NSCLC
ACHN renal = tested on: ACHN renal
CCRF-CEM leukemia = tested on: CCRF-CEM leukemia
DMS 114 small cell lung = tested on: DMS 114 small cell lung
DMS 273 small cell lung = tested on: DMS 273 small cell lung
HCT-116 colon = tested on: HCT-116 colon
HCT-15 colon = tested on: HCT-15 colon
HL-60(TB) leukemia = tested on: HL-60(TB) leukemia
HOP-18 NSCLC = tested on: HOP-18 NSCLC
HT29 colon = tested on: HT29 colon
IGROV1 ovarian = tested on: IGROV1 ovarian
K-562 leukemia = tested on: K-562 leukemia
KM12 colon = tested on: KM12 colon
LOX IMVI melanoma = tested on: LOX IMVI melanoma
LXFL 529 NSCLC = tested on: LXFL 529 NSCLC
M14 melanoma = tested on: M14 melanoma
M19-MEL melanoma = tested on: M19-MEL melanoma
MALME-3M melanoma = tested on: MALME-3M melanoma
MOLT-4 leukemia = tested on: MOLT-4 leukemia
NCI-H226 lung = tested on: NCI-H226 lung
NCI-H23 lung = tested on: NCI-H23 lung
NCI-H460 lung = tested on: NCI-H460 lung
OVCAR-3 ovarian = tested on: OVCAR-3 ovarian
OVCAR-4 ovarian = tested on: OVCAR-4 ovarian
OVCAR-8 ovarian = tested on: OVCAR-8 ovarian
RXF 393 renal = tested on: RXF 393 renal
SF-268 CNS = tested on: SF-268 CNS
SF-295 CNS = tested on: SF-295 CNS
SF-539 CNS = tested on: SF-539 CNS
SK-MEL-2 melanoma = tested on: SK-MEL-2 melanoma
SK-MEL-28 melanoma = tested on: SK-MEL-28 melanoma
SK-MEL-5 melanoma = tested on: SK-MEL-5 melanoma
SN12C renal = tested on: SN12C renal
SNB-75 CNS = tested on: SNB-75 CNS
SNB-78 CNS = tested on: SNB-78 CNS
SW-620 colon = tested on: SW-620 colon
TK-10 renal = tested on: TK-10 renal
UACC-257 melanoma = tested on: UACC-257 melanoma
UACC-62 melanoma = tested on: UACC-62 melanoma
786-0 renal = tested on: 786-0 renal
CAKI-1 renal = tested on: CAKI-1 renal
COLO 205 colon = tested on: COLO 205 colon
EKVX NSCLC = tested on: EKVX NSCLC
HCC-2998 colon = tested on: HCC-2998 colon
HOP-62 NSCLC = tested on: HOP-62 NSCLC
HOP-92 NSCLC = tested on: HOP-92 NSCLC
KM20L2 colon = tested on: KM20L2 colon
NCI-H522 lung = tested on: NCI-H522 lung
OVCAR-5 ovarian = tested on: OVCAR-5 ovarian
RPMI-8226 leukemia = tested on: RPMI-8226 leukemia
SK-OV-3 ovarian = tested on: SK-OV-3 ovarian
SNB-19 CNS = tested on: SNB-19 CNS
U251 CNS = tested on: U251 CNS
UO-31 renal = tested on: UO-31 renal
DLD-1 colon = tested on: DLD-1 colon

CC1(C)OC(COP2OCCO2)[C@H](COP2OCCO2)O1 (stereo partly drawn)
> 100 µM: TGI (A498 renal) | TGI (A549 NSCLC) | TGI (ACHN renal) | TGI (CCRF-CEM leukemia) | TGI (DMS 114 small cell lung) | TGI (DMS 273 small cell lung) | TGI (HCT-116 colon) | TGI (HCT-15 colon) | TGI (HL-60(TB) leukemia) | TGI (HOP-18 NSCLC) | TGI (HT29 colon) | TGI (IGROV1 ovarian) | TGI (K-562 leukemia) | TGI (KM12 colon) | TGI (LOX IMVI melanoma) | TGI (LXFL 529 NSCLC) | TGI (M14 melanoma) | TGI (M19-MEL melanoma) | TGI (MALME-3M melanoma) | TGI (MOLT-4 leukemia) | TGI (NCI-H226 lung) | TGI (NCI-H23 lung) | TGI (NCI-H460 lung) | TGI (OVCAR-3 ovarian) | TGI (OVCAR-4 ovarian) | TGI (OVCAR-8 ovarian) | TGI (RXF 393 renal) | TGI (SF-268 CNS) | TGI (SF-295 CNS) | TGI (SF-539 CNS) | TGI (SK-MEL-2 melanoma) | TGI (SK-MEL-28 melanoma) | TGI (SK-MEL-5 melanoma) | TGI (SN12C renal) | TGI (SNB-75 CNS) | TGI (SNB-78 CNS) | TGI (SW-620 colon) | TGI (TK-10 renal) | TGI (UACC-257 melanoma) | TGI (UACC-62 melanoma)

CC(=O)[O-].O=C([CH-]C(=O)c1ccccc1)c1ccccc1.O=C([CH-]C(=O)c1ccccc1)c1ccccc1.[Dy+3]
51.8 µM: TGI (OVCAR-3 ovarian)
23.1 µM: TGI (HCT-116 colon)
34.7 µM: TGI (RPMI-8226 leukemia) | TGI (RXF 393 renal)
36.2 µM: TGI (HCC-2998 colon)
40.4 µM: TGI (UACC-257 melanoma)
28.8 µM: TGI (SF-295 CNS)
56.1 µM: TGI (SF-539 CNS)
70.3 µM: TGI (SNB-19 CNS)
51.2 µM: TGI (A549 NSCLC)
36.9 µM: TGI (NCI-H522 lung)
56.4 µM: TGI (SF-268 CNS)
86.5 µM: TGI (TK-10 renal)
8.46 µM: TGI (SNB-75 CNS)
26.2 µM: TGI (HT29 colon)
42.6 µM: TGI (EKVX NSCLC)
37 µM: TGI (NCI-H23 lung)
11.5 µM: TGI (HL-60(TB) leukemia)
17.8 µM: TGI (K-562 leukemia)
31.9 µM: TGI (HOP-62 NSCLC) | TGI (MOLT-4 leukemia)
37.4 µM: TGI (SK-MEL-2 melanoma)
67.9 µM: TGI (MALME-3M melanoma)
50.3 µM: TGI (CAKI-1 renal)
32.5 µM: TGI (UO-31 renal)
20.9 µM: TGI (SK-MEL-5 melanoma)
51.4 µM: TGI (SK-MEL-28 melanoma)
43.9 µM: TGI (HOP-92 NSCLC)
36.5 µM: TGI (OVCAR-8 ovarian)
93.8 µM: TGI (IGROV1 ovarian)
61.5 µM: TGI (A498 renal) | TGI (SK-OV-3 ovarian)
44.7 µM: TGI (KM20L2 colon)
30.9 µM: TGI (LOX IMVI melanoma)
inactive: GI50 (786-0 renal) 12 µM | GI50 (A498 renal) 15.5 µM | GI50 (A549 NSCLC) 18 µM | GI50 (ACHN renal) 14.3 µM | GI50 (CAKI-1 renal) 17 µM | GI50 (COLO 205 colon) 15.3 µM | GI50 (EKVX NSCLC) 9.62 µM | GI50 (HCC-2998 colon) 11.6 µM | GI50 (HCT-116 colon) 5.75 µM | GI50 (HL-60(TB) leukemia) 2.84 µM | GI50 (HOP-62 NSCLC) 6.91 µM | GI50 (HOP-92 NSCLC) 18.8 µM | GI50 (HT29 colon) 11.3 µM | GI50 (IGROV1 ovarian) 18.5 µM | GI50 (K-562 leukemia) 3.55 µM | GI50 (KM12 colon) 21 µM | GI50 (KM20L2 colon) 12.9 µM | GI50 (LOX IMVI melanoma) 12.4 µM | GI50 (M14 melanoma) 15.9 µM | GI50 (MALME-3M melanoma) 21.8 µM | GI50 (MOLT-4 leukemia) 4.59 µM | GI50 (NCI-H226 lung) 3.79 µM | GI50 (NCI-H23 lung) 9.36 µM | GI50 (NCI-H460 lung) 6.66 µM | GI50 (NCI-H522 lung) 10.4 µM | GI50 (OVCAR-3 ovarian) 13.9 µM | GI50 (OVCAR-4 ovarian) 16.5 µM | GI50 (OVCAR-5 ovarian) 34.9 µM | GI50 (OVCAR-8 ovarian) 4.78 µM | GI50 (RPMI-8226 leukemia) 7.87 µM | GI50 (RXF 393 renal) 6.84 µM | GI50 (SF-268 CNS) 10.4 µM | GI50 (SF-295 CNS) 7.73 µM | GI50 (SF-539 CNS) 18.9 µM | GI50 (SK-MEL-2 melanoma) 14.9 µM | GI50 (SK-MEL-28 melanoma) 15.4 µM | GI50 (SK-MEL-5 melanoma) 6.5 µM | GI50 (SK-OV-3 ovarian) 16.9 µM | GI50 (SN12C renal) 11.9 µM | GI50 (SNB-19 CNS) 14.8 µM | GI50 (SNB-75 CNS) 3.33 µM | GI50 (SW-620 colon) 7.27 µM | GI50 (TK-10 renal) 27.4 µM | GI50 (U251 CNS) 11.9 µM | GI50 (UACC-257 melanoma) 15.6 µM | GI50 (UACC-62 melanoma) 9.15 µM | GI50 (UO-31 renal) 8.35 µM
15.6 µM: TGI (NCI-H226 lung)
36 µM: TGI (M14 melanoma)
34.1 µM: TGI (COLO 205 colon)
> 100 µM: TGI (ACHN renal) | TGI (KM12 colon) | TGI (NCI-H460 lung) | TGI (OVCAR-4 ovarian) | TGI (OVCAR-5 ovarian) | TGI (SW-620 colon) | TGI (U251 CNS)
59.5 µM: TGI (SN12C renal)
35.9 µM: TGI (786-0 renal)
48.1 µM: TGI (UACC-62 melanoma)

O=C(Nc1cc(Cl)ccc1Cl)c1cc2ccccc2oc1=O
83 µM: TGI (HOP-18 NSCLC)
90.3 µM: TGI (MALME-3M melanoma)
> 100 µM: TGI (786-0 renal) | TGI (A549 NSCLC) | TGI (ACHN renal) | TGI (CCRF-CEM leukemia) | TGI (COLO 205 colon) | TGI (DLD-1 colon) | TGI (DMS 114 small cell lung) | TGI (DMS 273 small cell lung) | TGI (EKVX NSCLC) | TGI (HCT-116 colon) | TGI (HCT-15 colon) | TGI (HL-60(TB) leukemia) | TGI (HOP-62 NSCLC) | TGI (HT29 colon) | TGI (IGROV1 ovarian) | TGI (K-562 leukemia) | TGI (KM12 colon) | TGI (KM20L2 colon) | TGI (LOX IMVI melanoma) | TGI (M14 melanoma) | TGI (M19-MEL melanoma) | TGI (MOLT-4 leukemia) | TGI (NCI-H23 lung) | TGI (NCI-H460 lung) | TGI (NCI-H522 lung) | TGI (OVCAR-3 ovarian) | TGI (OVCAR-8 ovarian) | TGI (RPMI-8226 leukemia) | TGI (RXF 393 renal) | TGI (SF-295 CNS) | TGI (SF-539 CNS) | TGI (SK-MEL-2 melanoma) | TGI (SK-MEL-28 melanoma) | TGI (SK-MEL-5 melanoma) | TGI (SK-OV-3 ovarian) | TGI (SN12C renal) | TGI (SW-620 colon) | TGI (TK-10 renal) | TGI (U251 CNS) | TGI (UACC-257 melanoma) | TGI (UACC-62 melanoma)
62.9 µM: TGI (SNB-75 CNS)
